Test system: HCV 1b genotype replicon
Test: HCV replicon drug screening assay (quantitative RT-PCR or luciferase), genotype 1b
Format: cell-based
Settings: Hepatitis C virus; HCV 1b genotype replicon; quantitative RT-PCR or luciferase assay; read-out: Genotype-1b replicon EC50 Range
Text: HCV replicon cell lines (kindly provided by R. Bartenschlager) isolated from colonies as described by Lohman et. al. (Lohman et al. (1999) Science 285: 110-113, expressly incorporated by reference in its entirety) and used for all experiments. The HCV replicon has the nucleic acid sequence set forth in EMBL Accession No.: AJ242651, the coding sequence of which is from nucleotides 1801 to 8406.
The coding sequence of the published HCV replicon was synthesized and subsequently assembled in a modified plasmid pBR322 (Promega, Madison, Wis.) using standard molecular biology techniques. One replicon cell line (“SGR 11-7”) stably expresses HCV replicon RNA which consists of (i) the HCV 5′UTR fused to the first 12 amino acids of the capsid protein, (ii) the neomycin phosphotransferase gene (neo), (iii) the IRES from encephalomyocarditis virus (EMCV), and (iv) HCV NS2 to NS5B genes and the HCV 3′UTR. Another replicon cell line (“Huh-luc/neo-ET”) described by Vrolijk et. al. (Vrolijk et. al. (2003) Journal of Virological Methods 110:201-209, expressly incorporated by reference in its entirety) stably expresses HCV replicon RNA which consists of (i) the HCV 5′UTR fused to the first 12 amino acids of the capsid protein, (ii) the firefly luciferase reporter gene, (iii) the ubiquitin gene, (iv) the neomycin phosphotransferase gene (neo), (v) the IRES from encephalomyocarditis virus (EMCV), and (vi) HCV NS3 to NS5B genes that harbor cell culture adaptive mutations (E1202G, T12801, K1846T) and the HCV 3′UTR.
These cell lines are maintained at 37° C., 5% CO2, 100% relative humidity in DMEM (Cat#11965-084, Invitrogen), with 10% fetal calf serum (“FCS”, Invitrogen), 1% non-essential amino acids (Invitrogen), 1% of Glutamax (Invitrogen), 1% of 100× penicillin/streptomycin (Cat#15140-122, Invitrogen) and Geneticin (Cat#10131-027, Invitrogen) at 0.75 mg/ml or 0.5 mg/ml for 11-7 and Huh-luc/neo-ET cells, respectively.
EC50 values of single agent compounds and combinations were determined by HCV RNA detection using quantitative RT-PCR, according to the manufacturer's instructions, with a TAQMAN® One-Step RT-PCR Master Mix Reagents Kit (Cat#AB 4309169, Applied Biosystems) on an ABI Model 7500 thermocycler. The TaqMan primers to use for detecting and quantifying HCV RNA are 5′-GCTGCGGCCTGTCGAGCT-3′ (SEQ ID NO: 1), 5′-CAAGGTCGTCTCCGCATAC-3′ (SEQ ID NO: 2) and the probe 5′-FAM-[…]-BHQ-3′ (SEQ ID NO: 3) obtained from Integrated DNA Technologies. HCV RNA is normalized to GAPDH RNA levels in drug-treated cells, which is detected and quantified using the Human GAPDH Endogenous Control Mix (Applied Biosystems, AB 4310884E). Total cellular RNA is purified from 96-well plates using the RNAqueous 96 kit (Ambion, Cat#AM1812). Chemical agent cytotoxicity was evaluated using an MTS assay according to the manufacturer's directions (Promega).
The compounds described herein can be effective against the HCV 1b genotype. It should also be understood that the compounds can inhibit multiple genotypes of HCV. In one embodiment, compounds of Formula (I) are active against the 1a, 1b, 2a, 2b, 3a, 4a, and 5a genotypes. […] The EC50 ranges were classified into the following groups: A>10 nM; B 1-10 nM; C<1 nM. The potential cytotoxicities of each agent were analyzed in parallel by MTS assay and are greater than 3 uM for all agents.

Row | Compound | EC50 [nM]
1 | COC(=O)N[C@H](C(=O)N1CCC[C@H]1c1nc(-c2ccc(C#Cc3ccc4[nH]c([C@@H]5CCCN5C(=O)OC(C)(C)C)nc4c3)cc2)c[nH]1)C(C)C [Compound 75] | 1 to 10
2 | CC(C)[C@H](Nc1ncccn1)C(=O)N1CCC[C@H]1c1nc2cc(-c3ccc(-c4ccc5[nH]c([C@@H]6CCCN6C(=O)[C@@H](Nc6ncccn6)C(C)C)nc5c4)cc3)ccc2[nH]1 [Compound 19] | < 1
3 | COC(=O)N[C@H](C(=O)N1CCC[C@H]1c1nc(-c2ccc3cc(-c4cc5nc([C@@H]6CCCN6C(=O)[C@@H](NC(=O)OC)C(C)C)[nH]c5cc4Cl)ccc3c2)c[nH]1)C(C)C [Compound 68] | < 1
4 | COC(=O)N[C@H](C(=O)N1CCC[C@H]1c1ncc(-c2ccc(C#Cc3ccc4nc([C@@H]5C6CCC(CC6)N5C(=O)[C@@H](NC(=O)OC)C(C)C)[nH]c4c3)cc2)[nH]1)C(C)C [Compound 125] | < 1
5 | COC(=O)N[C@H](C(=O)N1[C@@H]2CC[C@@H](C2)[C@H]1c1nc(-c2ccc(C#Cc3ccc4[nH]c([C@@H]5[C@H]6CC[C@H](C6)N5C(=O)[C@@H](NC(=O)OC)C(C)C)nc4c3)cc2)c[nH]1)C(C)C [Compound 126] | < 1
6 | CC[C@H](C)[C@H](NC(=O)OC)C(=O)N1CCC[C@H]1c1nc2cc(-c3ccc(-c4ccc5[nH]c([C@@H]6CCCN6C(=O)[C@@H](NC(=O)OC)[C@@H](C)CC)nc5c4)cc3)ccc2[nH]1 [Compound 26] | < 1
7 | COC(=O)N[C@H](C(=O)N1CCC[C@H]1c1ncc(-c2ccc(C#Cc3ccc4nc([C@@H]5C[C@@H](F)CN5C(=O)[C@@H](NC(=O)OC)C(C)C)[nH]c4c3)cc2)[nH]1)C(C)C [Compound 106] | < 1
8 | COC(=O)N[C@H](C(=O)N1CCC[C@H]1c1ncc(-c2ccc(C#Cc3ccc4nc([C@@H]5CCCN5C(=O)[C@@H](NC(=O)OC)[C@@H](C)O)[nH]c4c3)cc2)[nH]1)[C@@H](C)O [Compound 97] | < 1
9 | COC(=O)N[C@H](C(=O)N1CCC[C@H]1c1ncc(-c2ccc([C@@H]3C[C@H]3c3ccc4nc([C@@H]5CCCN5C(=O)[C@@H](NC(=O)OC)C(C)C)[nH]c4c3)cc2)[nH]1)C(C)C [Compound 73] | < 1
10 | COC(=O)N[C@H](C(=O)N1CCC[C@H]1c1nc(-c2ccc(C#Cc3ccc4[nH]c([C@@H]5CC(=O)CN5C(=O)[C@@H](NC(=O)OC)C(C)C)nc4c3)cc2)c[nH]1)C(C)C [Compound 66] | < 1
11 | COC(=O)N[C@@H](C(=O)N1CCC[C@H]1c1nc2ccc(CCc3ccc(-c4cnc([C@@H]5CCCN5C(=O)[C@H](NC(=O)OC)c5ccccc5)o4)cc3)cc2[nH]1)c1ccccc1 [Compound 104] | < 1
12 | COC(=O)N[C@H](C(=O)N1CCC[C@H]1c1nc(CCc2ccc(-c3ccc4[nH]c([C@@H]5CCCN5C(=O)[C@@H](NC(=O)OC)C(C)C)nc4c3)cc2)c[nH]1)C(C)C [Compound 56] | < 1
13 | COC(=O)N[C@@H](C(=O)N1CCC[C@H]1c1cc2cc(C#Cc3ccc(-c4c[nH]c([C@@H]5CCCN5C(=O)[C@H](NC(=O)OC)c5ccccc5)n4)cc3)ccc2[nH]1)c1ccccc1 [Compound 116] | < 1
14 | CC[C@H](NC(=O)OC)C(=O)N1CCC[C@H]1c1nc2cc(C#Cc3ccc(-c4c[nH]c([C@@H]5CCCN5C(=O)[C@@H](NC(=O)OC)C(C)C)n4)cc3)ccc2[nH]1 [Compound 77] | < 1
15 | COC(=O)N[C@H](C(=O)N1CCC[C@H]1c1nc(-c2ccc(C#Cc3ccc4[nH]c([C@@H]5CC(F)(F)CN5C(=O)[C@@H](NC(=O)OC)C(C)C)nc4c3)cc2)c[nH]1)C(C)C [Compound 92] | < 1
16 | COC(=O)N[C@@H](C(=O)N1CCC[C@H]1c1ncc(-c2ccc(-c3ccc4[nH]c([C@@H]5CCCN5C(=O)[C@H](NC(=O)OC)c5ccccc5)nc4c3)cc2)[nH]1)c1ccccc1 [Compound 35] | < 1
17 | COC(=O)N[C@H](C(=O)N1CCC[C@H]1c1ncc(-c2ccc(C#Cc3ccc4nc([C@@H]5CCCN5C(=O)[C@@H](NC(=O)OC)C(C)(C)O)[nH]c4c3)cc2)[nH]1)C(C)C [Compound 100] | < 1

Row | Compound | EC50 [nM]
18 | COC(=O)N[C@@H](C(=O)N1CCC[C@H]1c1cc(-c2ccc(C#Cc3ccc4[nH]c([C@@H]5CCCN5C(=O)[C@H](NC(=O)OC)c5ccccc5)nc4c3)cc2)n[nH]1)c1ccccc1 [Compound 41] | < 1
19 | COC(=O)N[C@H](C(=O)N1CCC[C@H]1c1nc(-c2ccc(C#Cc3ccc4[nH]c([C@@H]5CCCN5C(=O)[C@@H](NC(=O)OC)C(C)C)nc4n3)cc2)c[nH]1)C(C)C [Compound 113] | < 1
20 | C=C1C[C@@H](c2nc(-c3ccc(C#Cc4ccc5[nH]c([C@@H]6CCCN6C(=O)[C@@H](NC(=O)OC)C(C)C)nc5c4)cc3)c[nH]2)N(C(=O)[C@@H](NC(=O)OC)C(C)C)C1 [Compound 118] | < 1
21 | COC(=O)N[C@@H](C(=O)N1CCC[C@H]1c1nc2cc(-c3ccc(-c4cnc5[nH]c([C@@H]6CCCN6C(=O)[C@H](NC(=O)OC)c6ccccc6)nc5c4)cc3)cnc2[nH]1)c1ccccc1 [Compound 112] | < 1
22 | COC(=O)N[C@H](C(=O)N1CCC[C@H]1c1nc(-c2ccc(/C=C/c3ccc4[nH]c([C@@H]5CCCN5C(=O)[C@@H](NC(=O)OC)C(C)C)nc4c3)cc2)c[nH]1)C(C)C [Compound 69] | < 1
23 | COC(=O)N[C@@H](C)C(=O)N1CCC[C@H]1c1nc2cc(C#Cc3ccc(-c4c[nH]c([C@@H]5CCCN5C(=O)[C@@H](NC(=O)OC)C(C)C)n4)cc3)ccc2[nH]1 [Compound 76] | < 1
24 | COC(=O)N[C@@H](C(=O)N1CCC[C@H]1c1nc(-c2ccc(CCc3ccc4[nH]c([C@@H]5CCCN5C(=O)[C@H](NC(=O)OC)c5ccccc5)nc4c3)cc2)n[nH]1)c1ccccc1 [Compound 40] | < 1
25 | COC(=O)N[C@H](C(=O)N1CCC[C@H]1c1ncc(-c2ccc(CCCc3ccc4[nH]c([C@@H]5CCCN5C(=O)[C@@H](NC(=O)OC)C(C)C)nc4c3)cc2)[nH]1)C(C)C [Compound 43] | < 1
26 | C=C1C[C@@H](c2nc(-c3ccc(C#Cc4ccc5[nH]c([C@@H]6CC(=C)CN6C(=O)[C@@H](NC(=O)OC)C(C)C)nc5c4)cc3)c[nH]2)N(C(=O)[C@@H](NC(=O)OC)C(C)C)C1 [Compound 119] | < 1
27 | COC(=O)N[C@H](C(=O)N1CCC[C@H]1c1nc(-c2ccc3cc(-c4ccc5[nH]c([C@@H]6CCCN6C(=O)[C@@H](NC(=O)OC)C(C)C)nc5c4)ccc3c2)c[nH]1)C(C)C [Compound 48] | < 1
28 | COC(=O)N[C@H](C(=O)N1CCC[C@H]1c1ncc(-c2ccc([C@H]3C[C@@H]3c3ccc4nc([C@@H]5CCCN5C(=O)[C@@H](NC(=O)OC)C(C)C)[nH]c4c3)cc2)[nH]1)C(C)C [Compound 72] | < 1
29 | COC(=O)N[C@H](C(=O)N1CC2(CC2)C[C@H]1c1nc(-c2ccc(C#Cc3ccc4[nH]c([C@@H]5CCCN5C(=O)[C@@H](NC(=O)OC)C(C)C)nc4c3)cc2)c[nH]1)C(C)C [Compound 94] | < 1
30 | COC(=O)N[C@@H](C(=O)N1CCC[C@H]1c1nc2cc(CCCCc3ccc4[nH]c([C@@H]5CCCN5C(=O)[C@H](NC(=O)OC)c5ccccc5)nc4c3)ccc2[nH]1)c1ccccc1 [Compound 29] | < 1
31 | C=C1C[C@@H](c2nc3cc(C#Cc4ccc(-c5c[nH]c([C@@H]6CCCN6C(=O)[C@@H](NC(=O)OC)C(C)C)n5)cc4)ccc3[nH]2)N(C(=O)[C@@H](NC(=O)OC)C(C)C)C1 [Compound 117] | < 1
32 | CC[C@H](C)[C@H](NC(=O)OC)C(=O)N1CCC[C@H]1c1ncc(-c2ccc(C#Cc3ccc4nc([C@@H]5CCCN5C(=O)[C@@H](NC(=O)OC)[C@@H](C)CC)[nH]c4c3)cc2)[nH]1 [Compound 96] | < 1
33 | COC(=O)N[C@H](C(=O)N1CCC[C@H]1c1nc(-c2ccc3cc(/C=C/c4ccc5[nH]c([C@@H]6CCCN6C(=O)[C@@H](NC(=O)OC)C(C)C)nc5c4)ccc3c2)c[nH]1)C(C)C [Compound 61] | < 1
